According to ChEMBL document CHEMBL3877318, “Cystatin C peptidomimetic derivative with antimicrobial properties as a potential compound against wound infections” (Bioorg Med Chem, 2017):
Active and inactive are the calls of the source. The calls are words filed in the database; no cut-off is given here.

Test system: PBMC
Test: Inhibition of LPS-stimulated TNF-alpha release in human PBMC at 600 ng/ml after 20 hrs by ELISPOT test
Type: functional, cell-based

SMILES: C[C@@H]1C[C@H]2[C@@H]3CCC4=CC(=O)C=C[C@]4(C)[C@@]3(F)[C@@H](O)C[C@]2(C)[C@@]1(O)C(=O)CO
- inhibition: Active
